Literature values, collected in patent US6433221B1 (RPC Inc., priority 1998, dated 2002).
Where two headings read alike, the source gives them in different places.

Assays:
[1] = water in cyclohexanone; for mol % CHxO: balance
[2] = cyclohexanone in water; for mol % H2O: balance

O [Water]
mol % H2O ([1]; 20 °C): 25.1% mol %
wt % H2O ([1]; 20 °C): 5.7% wt %
mol % CHxO ([1]; 20 °C): 74.9% mol %
wt % H2O ([1]; 20 °C, listed as water): 5.7 wt %
mol % H2O ([1]; 25 °C): 25.6% mol %
wt % H2O ([1]; 25 °C): 5.9% wt %
mol % CHxO ([1]; 25 °C): 74.4% mol %
mol % H2O ([1]; 30 °C): 26.1% mol %
wt % H2O ([1]; 30 °C): 6.0% wt %
mol % CHxO ([1]; 30 °C): 73.9% mol %
mol % H2O ([1]; 50 °C): 28.7% mol %
wt % H2O ([1]; 50 °C): 6.8% wt %
mol % CHxO ([1]; 50 °C): 71.3% mol %
mol % H2O ([1]; 70 °C): 32.6% mol %
wt % H2O ([1]; 70 °C): 8.1% wt %
mol % CHxO ([1]; 70 °C): 67.4% mol %
mol % H2O ([1]; 90 °C): 38.5% mol %
wt % H2O ([1]; 90 °C): 10.2% wt %
mol % CHxO ([1]; 90 °C): 61.5% mol %

O=C1CCCCC1 [Cyclohexanone]
mol % CHxO ([2]; 20 °C): 1.98% mol %
wt % CHxO ([2]; 20 °C): 10.00% wt %
mol % H2O ([2]; 20 °C): 98.02% mol %
mol % CHxO ([2]; 25 °C): 1.85% mol %
wt % CHxO ([2]; 25 °C): 9.39% wt %
mol % H2O ([2]; 25 °C): 98.15% mol %
mol % CHxO ([2]; 30 °C): 1.73% mol %
wt % CHxO ([2]; 30 °C): 8.83% wt %
mol % H2O ([2]; 30 °C): 98.27% mol %
mol % CHxO ([2]; 50 °C): 1.43% mol %
wt % CHxO ([2]; 50 °C): 7.39% wt %
mol % H2O ([2]; 50 °C): 98.57% mol %
mol % CHxO ([2]; 70 °C): 1.34% mol %
wt % CHxO ([2]; 70 °C): 6.95% wt %
mol % H2O ([2]; 70 °C): 98.66% mol %
mol % CHxO ([2]; 90 °C): 1.44% mol %
wt % CHxO ([2]; 90 °C): 7.44% wt %
mol % H2O ([2]; 90 °C): 98.56% mol %
